Earlier results on two molecules are cited in patent publication US5032506A, “Color control system” (priority 1986, dated 1991).

Usually Km stands for the concentration of substrate that gives half-maximal velocity.

This data set relates to diaphorase. As to conditions: chromogen substrates of diaphorase; literature values (Gella et al. 1981); read-out: Km for the tetrazolium salts.

In the case of `COc1cc(-c2ccc(-n3nc(-c4ccccc4)n[n+]3-c3ccc([N+](=O)[O-])cc3)c(OC)c2)ccc1-n1nc(-c2ccccc2)n[n+]1-c1ccc([N+](=O)[O-])cc1` [NBT, nitro blue tetrazolium chloride], the Km is 2000 µM.

Take `O=[N+]([O-])c1ccc(-[n+]2nc(-c3ccccc3)nn2-c2ccc(I)cc2)cc1` [INT]: the Km was 870 µM.
